Calls of active or inactive are those of the source.
Columns and labels:
P388/ADR = experiment: cells; assay type: functional; conditions: Mus musculus
SN12K1 = experiment: cells; assay type: functional; conditions: Homo sapiens
P388 = experiment: cells; assay type: functional; conditions: Mus musculus
[1] = biological target: T1, Calpain-2 catalytic subunit (Sus scrofa, UniProt P43367); experiment: m-calpain protease blockers, concentration series – biochemical, fluorogenic peptide substrate, dose response (AID 1420); assay type: functional
T1 sequence (P43367 whole entry): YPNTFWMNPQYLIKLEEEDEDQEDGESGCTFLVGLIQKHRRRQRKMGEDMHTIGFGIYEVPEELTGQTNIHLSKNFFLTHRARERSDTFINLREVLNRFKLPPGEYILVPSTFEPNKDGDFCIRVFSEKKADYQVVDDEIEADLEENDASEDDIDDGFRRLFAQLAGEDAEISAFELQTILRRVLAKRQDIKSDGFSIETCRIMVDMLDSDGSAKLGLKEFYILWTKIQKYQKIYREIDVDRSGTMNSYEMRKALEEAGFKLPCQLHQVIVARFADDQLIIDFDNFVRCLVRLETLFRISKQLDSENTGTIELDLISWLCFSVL

Cytochrome P450 1A2 = biological target: T2, Cytochrome P450 1A2 (Homo sapiens, UniProt P05177);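 note: PubChem cytochrome P450 panel assay, CYP1A2 panel member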
T2 sequence (P05177 whole entry): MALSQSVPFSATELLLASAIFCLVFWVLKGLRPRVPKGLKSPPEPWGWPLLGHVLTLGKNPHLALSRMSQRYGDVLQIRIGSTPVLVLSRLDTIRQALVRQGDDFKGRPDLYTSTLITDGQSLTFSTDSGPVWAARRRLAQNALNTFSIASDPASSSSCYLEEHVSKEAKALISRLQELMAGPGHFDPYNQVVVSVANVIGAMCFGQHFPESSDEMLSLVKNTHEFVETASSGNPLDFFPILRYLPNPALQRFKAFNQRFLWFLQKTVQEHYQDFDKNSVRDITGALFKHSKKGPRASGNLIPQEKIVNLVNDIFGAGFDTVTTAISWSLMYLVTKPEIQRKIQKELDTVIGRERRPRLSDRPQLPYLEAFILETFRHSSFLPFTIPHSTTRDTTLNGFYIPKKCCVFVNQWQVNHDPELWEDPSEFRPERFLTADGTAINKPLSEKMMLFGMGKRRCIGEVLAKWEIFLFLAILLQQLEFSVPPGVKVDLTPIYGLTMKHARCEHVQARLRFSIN

Cytochrome P450 2C9 = Cytochrome P450 2C9 (Homo sapiens, UniProt P11712)
Cytochrome P450 2C9, sequence (P11712 whole entry): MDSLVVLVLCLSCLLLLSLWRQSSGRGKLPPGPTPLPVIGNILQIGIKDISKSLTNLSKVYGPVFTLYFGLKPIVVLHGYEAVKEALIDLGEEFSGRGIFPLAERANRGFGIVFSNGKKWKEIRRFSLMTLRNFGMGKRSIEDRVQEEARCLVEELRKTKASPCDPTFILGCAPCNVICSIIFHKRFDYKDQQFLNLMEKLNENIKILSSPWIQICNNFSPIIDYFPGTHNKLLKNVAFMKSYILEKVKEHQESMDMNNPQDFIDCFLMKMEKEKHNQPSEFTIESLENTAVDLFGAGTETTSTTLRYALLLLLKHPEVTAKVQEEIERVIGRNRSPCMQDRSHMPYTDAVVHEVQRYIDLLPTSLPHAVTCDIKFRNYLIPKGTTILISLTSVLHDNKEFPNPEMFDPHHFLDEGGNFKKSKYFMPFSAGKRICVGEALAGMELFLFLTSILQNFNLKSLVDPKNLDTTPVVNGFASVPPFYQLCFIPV

Cytochrome P450 2C19 = Cytochrome P450 2C19 (Homo sapiens, UniProt P33261); experiment: Cytochrome panel assay with activity outcomes. Panel member name: p450-cyp2c19 Compounds with AC50 equal or less than 10 uM are considered active; assay type: functional; conditions: read-out: AC50
Cytochrome P450 2C19, sequence (P33261 whole entry): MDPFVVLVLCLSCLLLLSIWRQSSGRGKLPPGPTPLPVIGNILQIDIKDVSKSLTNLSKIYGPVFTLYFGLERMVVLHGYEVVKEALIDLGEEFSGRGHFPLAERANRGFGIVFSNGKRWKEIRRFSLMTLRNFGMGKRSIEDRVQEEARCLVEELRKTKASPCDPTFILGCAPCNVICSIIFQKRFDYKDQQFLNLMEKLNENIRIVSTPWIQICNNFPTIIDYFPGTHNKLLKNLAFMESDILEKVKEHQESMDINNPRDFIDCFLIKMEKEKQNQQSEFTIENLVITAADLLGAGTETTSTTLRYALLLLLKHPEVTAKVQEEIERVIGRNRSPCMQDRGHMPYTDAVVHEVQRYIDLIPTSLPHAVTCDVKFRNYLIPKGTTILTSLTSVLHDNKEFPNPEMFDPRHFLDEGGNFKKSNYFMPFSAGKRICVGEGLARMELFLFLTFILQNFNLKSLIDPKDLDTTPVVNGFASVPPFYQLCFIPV

Cytochrome P450 3A4 = Cytochrome P450 3A4 (Homo sapiens, UniProt P08684);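 note: CYP3A4 tested as one member of a cytochrome P450 panel screen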
Cytochrome P450 3A4, sequence (P08684 whole entry): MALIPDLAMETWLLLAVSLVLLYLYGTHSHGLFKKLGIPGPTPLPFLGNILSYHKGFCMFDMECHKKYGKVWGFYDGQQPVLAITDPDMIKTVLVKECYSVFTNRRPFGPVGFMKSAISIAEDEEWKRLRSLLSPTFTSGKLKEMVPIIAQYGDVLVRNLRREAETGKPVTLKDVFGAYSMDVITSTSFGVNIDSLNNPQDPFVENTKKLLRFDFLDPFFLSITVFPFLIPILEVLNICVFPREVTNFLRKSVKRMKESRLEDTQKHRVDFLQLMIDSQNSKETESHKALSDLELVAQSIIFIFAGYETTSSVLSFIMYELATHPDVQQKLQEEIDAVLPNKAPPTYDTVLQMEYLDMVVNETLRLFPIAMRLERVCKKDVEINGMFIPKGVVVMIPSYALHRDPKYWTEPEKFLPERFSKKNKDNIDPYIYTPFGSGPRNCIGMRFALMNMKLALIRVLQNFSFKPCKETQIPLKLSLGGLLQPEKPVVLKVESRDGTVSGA

[2] = luciferase reporter signal suppression in cells – H4 neuroglioma cells, luminescence, dose response (AID 1990); assay type: functional, cell-based
[3] = system: Streptococcus sp. 'group A'; experiment: Streptococcus pyogenes SK(-)GAS viability under kanamycin – luminescence, BacTiterGlo, confirmation, counter-screen for streptokinase expression inhibitor project, dose response (AID 1900); assay type: functional, organism-based
[4] = Luminescence Cell-Based Dose Response HTS to Identify Inhibitors of 5'UTR Stem-Loop Driven Prion Protein mRNA Translation in H4 Neuroglioblastoma Cells. [Related pubchem assays: 1827 (Project Summary), 1813 (Primary HTS)]; assay type: functional
[5] = alpha-synuclein stem-loop luciferase translation blockers – H4 neuroglioma cells, luminescence, confirmation (AID 1988); assay type: functional, cell-based
Streptococcus = experiment: GAS UMAA2166 growth inhibition – luminescence, BacTiterGlo, counter-screen for streptokinase expression inhibitor project, dose response (AID 1915); assay type: functional, organism-based;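 note: potency for reduction of bacterial viability or growth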
Vero = experiment: cells; assay type: functional; conditions: Chlorocebus sabaeus
[6] = Luminescence Cell-Based Dose Retest to Confirm Inhibitors of Cancer Stem Cells. [Related pubchem assays (depositor defined):AID2717, AID2721]; assay type: functional; conditions: Homo sapiens
[7] = HEK-293T viability loss after treatment – luminescence, T-cell screen hits, cytotoxicity control for TCR NF-kB inhibitor project, dose response (AID 489026); assay type: functional, cell-based;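 note: cells exposed to compound about 14 hours before the viability readout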
[8] = biological target: T3, Probable nicotinate-nucleotide adenylyltransferase (Staphylococcus aureus (strain N315), UniProt P65502); assay type: functional, Staphylococcus aureus subsp. aureus N315;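 for IC50 Mean: confirmatory dose-response retesting of NadD inhibitor hits first found in an ultra-high-throughput screen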
T3 sequence (P65502 whole entry): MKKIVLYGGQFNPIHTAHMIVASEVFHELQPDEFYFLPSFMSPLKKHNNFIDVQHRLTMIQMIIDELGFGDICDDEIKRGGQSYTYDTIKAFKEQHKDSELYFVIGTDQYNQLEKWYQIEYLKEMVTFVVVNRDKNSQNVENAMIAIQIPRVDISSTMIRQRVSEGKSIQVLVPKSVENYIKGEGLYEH

[9] = biological target: T3, Probable nicotinate-nucleotide adenylyltransferase; assay type: functional, Staphylococcus aureus subsp. aureus N315; conditions: read-out: IC50_Mean
[10] = biological target: T4, Heat shock factor protein 1 (Mus musculus, UniProt P38532); experiment: enhancement of HSF1-driven luciferase signal – cell-based, NIH3T3, luminescence, dose retest, confirmation (AID 435004); assay type: functional;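 note: stress induced by proteasome inhibitor MG132 added 30 min after compound; luciferase reporter driven by HSF1 response element in NIH3T3 cells; actives raise luminescence as potentiators of the MG132 stress response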
T4 sequence (P38532 whole entry): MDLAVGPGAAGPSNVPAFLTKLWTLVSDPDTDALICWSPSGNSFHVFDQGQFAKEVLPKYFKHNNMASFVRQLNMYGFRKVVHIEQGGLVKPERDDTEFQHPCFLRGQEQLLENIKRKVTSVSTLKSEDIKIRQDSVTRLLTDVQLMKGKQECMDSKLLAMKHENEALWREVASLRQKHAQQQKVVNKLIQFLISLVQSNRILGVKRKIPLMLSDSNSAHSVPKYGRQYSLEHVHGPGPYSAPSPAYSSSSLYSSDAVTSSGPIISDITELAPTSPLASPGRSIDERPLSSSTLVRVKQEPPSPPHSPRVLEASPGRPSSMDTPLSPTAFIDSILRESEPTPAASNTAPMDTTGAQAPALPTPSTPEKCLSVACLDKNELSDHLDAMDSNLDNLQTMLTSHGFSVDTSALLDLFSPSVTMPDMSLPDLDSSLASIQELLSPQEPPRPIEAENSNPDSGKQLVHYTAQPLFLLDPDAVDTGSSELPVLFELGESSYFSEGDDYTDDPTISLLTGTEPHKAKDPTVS

INS1 = experiment: INS-1E survival protection against cytokine death – cell-based, luminescence, retest, dose response (AID 449756); assay type: functional; conditions: Rattus norvegicus, INS1;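 note: cell death triggered by IL-1 beta plus TNF-alpha plus IFN-gamma mixture; protective hits raise ATP signal compared with cytokine alone wells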
[11] = viability of PTEN-deleted HCT116 cells – cell-based, HCT116 PTEN knockout, dose response (AID 1047); assay type: functional;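 note: HCT116 colon tumor cells with PTEN knocked out; cells exposed to compound for 60 hours before readout; potency for loss of cell viability measured by luminescence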
[12] = viability of HCT116 lacking mutant beta-catenin – cell-based, human colon tumor, dose response (AID 1045); assay type: functional;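 note: HCT116 colon tumor cells with beta catenin knocked out; cells exposed to compound for 60 hours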
Paired box protein Pax-8 = Paired box protein Pax-8 (Homo sapiens, UniProt Q06710); experiment: PAX8 transcriptional activity inhibition in RMG-I – RMG-I cells, luciferase, cherry-pick, dose response (AID 687027); assay type: functional, cell-based;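 note: luciferase reporter driven by Pax8 target thyroperoxidase promoter measured by SteadyGlo luminescence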
Paired box protein Pax-8, sequence (Q06710 whole entry): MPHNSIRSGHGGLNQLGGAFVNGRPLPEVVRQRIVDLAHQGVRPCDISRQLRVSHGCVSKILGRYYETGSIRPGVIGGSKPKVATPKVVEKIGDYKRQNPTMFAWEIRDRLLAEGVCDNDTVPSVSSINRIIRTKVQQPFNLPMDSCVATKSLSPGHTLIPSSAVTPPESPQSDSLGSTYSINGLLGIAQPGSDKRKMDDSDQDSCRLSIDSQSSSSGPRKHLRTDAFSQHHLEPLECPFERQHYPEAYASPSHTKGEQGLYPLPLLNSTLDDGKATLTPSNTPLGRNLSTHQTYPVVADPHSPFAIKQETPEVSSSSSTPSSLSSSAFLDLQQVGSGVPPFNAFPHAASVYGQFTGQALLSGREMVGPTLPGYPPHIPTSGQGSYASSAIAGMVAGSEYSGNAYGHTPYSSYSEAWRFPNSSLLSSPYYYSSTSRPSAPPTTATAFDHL

[13] = biological target: FAD-linked sulfhydryl oxidase ALR (Homo sapiens, UniProt P55789); experiment: ALR-catalysed DTT oxidation blockers – biochemical, H2O2 detection, luminescence, cherry-pick, dose response (AID 493248)
FAD-linked sulfhydryl oxidase ALR, sequence (P55789 whole entry): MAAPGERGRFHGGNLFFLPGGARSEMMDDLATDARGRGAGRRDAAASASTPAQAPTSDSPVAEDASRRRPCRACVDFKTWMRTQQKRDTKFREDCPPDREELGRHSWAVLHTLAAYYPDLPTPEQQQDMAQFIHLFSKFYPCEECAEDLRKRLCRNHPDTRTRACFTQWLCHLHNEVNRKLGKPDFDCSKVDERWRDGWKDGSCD

Cytochrome P450 2D6 = Cytochrome P450 2D6 (Homo sapiens, UniProt P10635);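 note: CYP2D6 member of a cytochrome P450 panel assay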
Cytochrome P450 2D6, sequence (P10635 whole entry): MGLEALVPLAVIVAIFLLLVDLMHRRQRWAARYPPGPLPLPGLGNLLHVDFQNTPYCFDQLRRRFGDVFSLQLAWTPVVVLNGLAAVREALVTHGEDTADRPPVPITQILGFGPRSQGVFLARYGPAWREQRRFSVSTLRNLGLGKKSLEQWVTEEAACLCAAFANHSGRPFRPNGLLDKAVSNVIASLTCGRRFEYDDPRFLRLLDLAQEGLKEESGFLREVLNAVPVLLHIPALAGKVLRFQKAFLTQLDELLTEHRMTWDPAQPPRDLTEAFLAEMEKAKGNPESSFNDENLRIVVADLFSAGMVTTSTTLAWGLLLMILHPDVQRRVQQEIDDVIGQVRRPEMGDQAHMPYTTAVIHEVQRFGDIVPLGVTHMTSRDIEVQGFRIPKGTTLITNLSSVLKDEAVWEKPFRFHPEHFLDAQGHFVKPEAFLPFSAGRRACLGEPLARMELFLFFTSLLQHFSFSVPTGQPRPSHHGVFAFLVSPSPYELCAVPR

CCCCCCCCCC[S+]([O-])CC(CO)NC(=O)/C=C/c1c(C)nc(O)nc1O (stereo unspecified)
GI50 (P388/ADR): 2.25 µM (inactive) | GI50 (SN12K1): 0.612 µM (active) | GI50 (P388): 0.0443 µM (active)

CCOC(=O)N1CCN(C(=O)c2ccc(NS(C)(=O)=O)cc2)CC1
IC50 [1]: > 50 µM (not active)

CCCCOc1ccc(C(=O)OC(C)CN(C)C)cc1 (stereo unspecified)
IC50 [1]: > 50 µM (not active)

NNC(=O)Cc1cccnc1
AC50 (Cytochrome P450 1A2): 0.631 µM (inconclusive) | AC50 (Cytochrome P450 2C9): inconclusive

O=C(COc1ccc(F)cc1)NN1C(=O)CSC1=S
IC50 [1]: 1.42 µM (not active)

C[S+]([O-])c1ccccc1-c1nc(-c2cccc(Cl)c2)no1 (stereo unspecified)
IC50 [1]: > 50 µM (not active)

Cc1cccc(C(=O)ON=C(N)c2cccc([N+](=O)[O-])c2)c1
AC50 (Cytochrome P450 2C19): 7.08 µM (inconclusive) | AC50 (Cytochrome P450 3A4): 17.8 µM (inconclusive) | AC50 (Cytochrome P450 2C9): inconclusive

CC(C)(C)c1ccc(C(=O)NNC(=S)NC(=O)c2cccnc2)cc1
EC50 [2]: 14.4 µM (active) | EC50 [3]: 0.47 µM (active) | EC50 [4]: 18.2 µM (active) | EC50 [5]: 10.8 µM (active) | EC50 (Streptococcus): 2.42 µM (active) | CC50 (Vero): > 25 µM (active)

CCSc1nnc(NC(=O)NC(CC)(C(F)(F)F)C(F)(F)F)s1
AC50 [6]: 7.03 µM (active) | CC50 (Vero): 16.5 µM (active)

CCSc1nnc(NC(=O)c2cccs2)s1
IC50 [1]: 15 µM (not active)

COc1cc(Cn2c(-c3nonc3N)nc3ccccc32)ccc1C
EC50 [2]: 9.66 µM (inconclusive) | EC50 [4]: 10.3 µM (active) | EC50 [5]: 7.81 µM (active) | IC50 [7]: > 80 µM (inactive)

Cc1cccc(-n2nc3c(c2NC(=O)c2ccc(Br)o2)CSC3)c1
IC50 [8]: 4.58 µM (active) | IC50 [9]: 17.5 µM (active)

COC(=O)CNC(=O)c1sc2ncn(CC(=O)Nc3ccc(C)c(Cl)c3)c(=O)c2c1C
IC50 [1]: 1.82 µM (not active)

CC1(C)CC(=O)C2=C(C1)N1C(=C(C#N)C2c2ccc(Cl)cc2)N=C(N)c2ccccc21 (stereo unspecified)
EC50 [10]: > 260 µM (inactive) | CC50 (Vero): > 25 µM (active)

COc1ccc(C(=O)N2CCN(c3ccc([N+](=O)[O-])c(NCCc4ccc(OC)c(OC)c4)c3)CC2)cc1
IC50 [7]: > 80 µM (inactive) | AC50 (INS1): 2.53 µM (active)

N#CC1=C(N)OC2=C(CC/C2=C\c2ccccc2Cl)C1c1ccccc1Cl (stereo unspecified)
EC50 [11]: 21.1 µM (active) | EC50 [12]: 18.3 µM (active) | CC50 (Vero): 22 µM (active)

CC(C)Nc1ccc(C(CC(N)=O)NC(=O)Cc2ccc(Br)cc2)cc1[N+](=O)[O-] (stereo unspecified)
IC50 [7]: > 80 µM (inactive)

O=S(=O)(NC(=Nc1ccc(Cl)c(S(=O)(=O)Nc2ccccc2Cl)c1)c1ccc(F)cc1)c1ccccc1
IC50 [8]: 13.7 µM (active) | IC50 [9]: 80 µM (inactive)

CNc1nc(C)cc(C)c1S(=O)(=O)c1ccc(Cl)cc1
AC50 (Cytochrome P450 1A2): 28.2 µM (inconclusive) | AC50 (Cytochrome P450 2C9): inconclusive

CCc1ccc(N2C(=O)C(Cl)=C(Nc3ccc(C(=O)N4CCCC4)cc3)C2=O)cc1
IC50 [7]: > 80 µM (inactive)

CC1=NN(C(=O)c2ccc(C)cc2)C(=O)C1/N=N/c1ccccc1C(=O)O (stereo unspecified)
GI50 (P388/ADR): > 100 µM (inactive) | GI50 (SN12K1): > 100 µM (inactive) | GI50 (P388): 17.5 µM (inactive)

CSc1cc(=O)n2c3ccccc3c3ccnc1c32
GI50 (P388/ADR): > 100 µM (inactive) | GI50 (SN12K1): 81.5 µM (inactive) | GI50 (P388): > 100 µM (inactive)

CC(C(=O)O)c1cnn(-c2ccccc2)c1-n1cccc1 (stereo unspecified)
GI50 (P388/ADR): > 100 µM (inactive) | GI50 (SN12K1): > 100 µM (inactive) | GI50 (P388): > 100 µM (inactive)

COc1cc(NCc2ccc3nc(N)nc(N)c3c2C)cc(OC)c1OC
GI50 (P388/ADR): 0.025 µM (active) | GI50 (SN12K1): 0.025 µM (active) | GI50 (P388): 0.025 µM (active)

CN(N=Nc1[nH]cnc1C(N)=O)C1CCCCC1
AC50 (Paired box protein Pax-8): 6.78 µM (active)

C[C@@H]1C[C@]2(C[C@@H](C)[C@H]3C(C[C@@]4(C)CCC[C@@H]5C6=C[C@H](CCC34C)OC6=CC(=O)OC5(C)C)O2)OC1=O (stereo partly specified)
GI50 (P388/ADR): > 51.5 µM (inactive) | GI50 (SN12K1): > 51.5 µM (inactive) | GI50 (P388): > 51.5 µM (inactive)

CCN(CC)c1ccc(/C=N/Nc2nc(C)cc(O)n2)cc1
AC50 [13]: 0.456 µM (active) | AC50 (Cytochrome P450 2C19): 22.4 µM (inconclusive) | AC50 (Cytochrome P450 2D6): 12.6 µM (inconclusive) | AC50 (Cytochrome P450 1A2): 25.1 µM (inconclusive) | AC50 (Cytochrome P450 2C9): inconclusive

CCOc1cc(/C=N/n2cnnc2)ccc1OS(=O)(=O)c1ccccc1
IC50 [1]: > 50 µM (not active)

CCCCC(=O)N/N=C(\C)CC(=O)Nc1cc(Cl)ccc1OC
AC50 (Cytochrome P450 1A2): 12.6 µM (inconclusive) | AC50 (Cytochrome P450 2C9): inconclusive

O=C1C(CO)=C[C@H](O)[C@H]2O[C@@H]12
GI50 (P388/ADR): 29.9 µM (inactive) | GI50 (SN12K1): 116 µM (inactive) | GI50 (P388): 38.9 µM (inactive)

Cc1cn(C2CC(O)C(CO)O2)c(=O)[nH]c1=O (stereo unspecified)
GI50 (P388/ADR): 91.8 µM (inactive) | GI50 (SN12K1): 857 µM (inactive) | GI50 (P388): 57.4 µM (inactive)
